Where a name gives a salt, the structure may show the parent alone.
biological target: T1, human IKK-β (Homo sapiens, UniProt O14920); assay: IKK-β kinase inhibitory assay; type: biochemical; details: compounds as yielded by solid phase synthesis, purity about 40 to 90%, read-out: In vitro activity grade (In vitro IC50)
T1 construct: A cDNA fragment encoding human IKK-β open reading frame was generated by PCR; His tag (from pcDNA3.1/His C); made in house; host or cells: Sf21 insect cells (baculovirus); substrate made in E. coli
T1 sequence (O14920 1-756): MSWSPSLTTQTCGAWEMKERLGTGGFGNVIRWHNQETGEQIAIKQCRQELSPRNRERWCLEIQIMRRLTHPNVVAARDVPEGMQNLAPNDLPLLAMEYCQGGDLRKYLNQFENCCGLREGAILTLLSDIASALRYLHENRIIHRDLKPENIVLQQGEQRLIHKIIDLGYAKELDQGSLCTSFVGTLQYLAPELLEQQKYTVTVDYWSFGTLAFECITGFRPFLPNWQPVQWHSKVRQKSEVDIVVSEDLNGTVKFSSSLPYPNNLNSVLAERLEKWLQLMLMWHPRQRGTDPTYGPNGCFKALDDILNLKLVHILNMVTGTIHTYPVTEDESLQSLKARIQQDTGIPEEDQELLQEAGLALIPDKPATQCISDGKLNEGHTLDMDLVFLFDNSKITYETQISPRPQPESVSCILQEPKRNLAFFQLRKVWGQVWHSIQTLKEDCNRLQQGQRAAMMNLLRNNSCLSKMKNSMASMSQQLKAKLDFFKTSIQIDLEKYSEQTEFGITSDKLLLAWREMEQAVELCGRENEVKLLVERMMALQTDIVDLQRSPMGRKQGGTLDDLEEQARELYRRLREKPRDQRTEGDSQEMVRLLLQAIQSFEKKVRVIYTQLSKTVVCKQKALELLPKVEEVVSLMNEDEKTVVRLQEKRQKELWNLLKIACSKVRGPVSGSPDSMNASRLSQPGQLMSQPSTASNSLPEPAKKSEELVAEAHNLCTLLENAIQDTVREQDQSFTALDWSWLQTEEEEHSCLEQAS
Excerpt: [IKK-β Kinase Inhibitory Assay]
(1) Preparation of IKK-β Kinase Protein.
• A cDNA fragment encoding human IKK-β open reading frame was generated by PCR with the use of a pair of primers designed from the published sequence (Woronicz J D et al. (1997) Science 278, 866-869). A template was obtained from Quickclone cDNA (Clontech) using Elongase™ Amplification kit (Life Technologies). The DNA fragments generated by PCR were gel-purified and subcloned into pBluescript. The cDNA fragment cloned in pBluescript was inserted into pcDNA3.1/His C KpnI/NotI, and transferred into pVL1393 SmaI/XbaI (Pharmingen) to construct a baculovirus transfer vector. Then the vector, together with the linearized baculovirus (BaculoGold™, Pharmingen) was used to transfect Sf21 cells (Invitrogen, San Diego, Calif.). Generated recombinant baculovirus was cloned and amplified in Sf21 cells, grown in TNM-FH insect cell medium (Life Technologies, Inc.) supplemented with 10% FCS, […] Gentamycin, 0.1% Pluronic F-68 (Life Technologies, Inc.) as suspension culture (200 ml in 1 L Erlenmeyer flask; 27° C.; 130 rpm). Sf21 cells were infected with this amplified virus with a multiplicity of infection of 5 following standard protocols (Crossen R, Gruenwald S (1997) Baculovirus Expression Vector System Instruction Manual, Pharmingen Corporation) and harvested 48 hrs later. The cells were lysed to obtain the produced chimeric protein of IKK-β kinase fused by histidine (His-tagged IKK-beta). (2) The Preparation of Purified GST-IκBα Fusion Proteins • An expression vector containing the nucleotide sequence encoding fusion protein of GST with amino acid residues 1 to 54 of IκBα under the control of an IPTG-inducible promoter was constructed. The expression vector was introduced in E. coli and the transformant was cultured and lysed to obtain a GST-IκBα fusion protein. Then the resulting GST-IκBα fusion protein was purified and biotinated for kinase assay. (3) The Measurement of IKK-β Kinase Activity • The 96-well format kinase assay of IKK-β were performed to test the inhibitory activity of the compounds of the present invention. First, 5 μl of a test compound was put in the presence of 2.5% dimethyl sulfoxide (DMSO) in each well in a U-bottomed 96-well plate (Falcon). For control wells of background (BG) and total phosphorylation (TP), 5 μl of 2.5% DMSO was put. Recombinant IKK-β (final 0.6 μg/ml) and bio-GST-IκBα (1-54) (final 0.2 μM) were diluted in 25 μl of 2×kinase buffer β (40 mM Tris-HCl, pH 7.6, 40 mM MgCl2, 40 mM β-glycerophosphate, 40 mM p-nitrophenylphosphate, 2 mM EDTA, 40 mM creatine phosphate, 2 mM DTT, 2 mM Na3VO4, 0.2 mg/ml BSA and 0.8 mM phenylmethylsulfonyl fluoride) and transferred to the 96-well plate. Bio-GST-IκBα (1-54) in 25 μl of 2×kinase buffer β without IKK-β was transferred to BG wells. Then 20 μl of 12.5 μM ATP, 62.5 μCi/ml [γ-^33P] ATP (Amersham Pharmacia Biotech) was added and the resulting mixture was incubated for 2 hrs at room temperature. The kinase reactions were terminated by the addition of 150 μl of termination buffer (100 mM EDTA, 1 mg/ml BSA, 0.2 mg NaN3). One hundred and fifty μl of the sample were transferred to a streptavidin-coated, white MTP (Steffens Biotechniche Analysen GmbH #08114E14.FWD) to capture the biotinylated substrates. After 1 hr of incubation, non-bound radioactivity was eliminated by washing the wells five times with 300 μl of washing buffer including 0.9% NaCl and 0.1% (w/v) Tween-20 with the use of a MW-96 plate washer (BioTec). The bound radioactivity was determined after the addition of 170 μl MicroScint-PS scintillation cocktail (Packard) using a TopCount scintillation counter. [Syk Tyrosine Kinase Inhibitory Assay for Selectivity] (1) Preparation of Syk Protein • A cDNA fragment encoding human Syk openreading frame was cloned from total RNA of human Burkitt's lymphoma B cell lines, Raji (American Type Culture Collection), with the use of RT-PCR method.

Row | Compound | IC50 [nM]
1 | Nc1nc(-c2ccccc2O)cc2c1CNC2Cc1ccccc1 (stereo in doubt) [Example 20-3, 2-[(1S)-4-amino-1-benzyl-2,3-dihydro-1H-pyrrolo[3,4-c]pyridin-6-yl]phenol hydrochloride] | < 500
2 | CC1(c2cc(-c3ccccc3O)nc(N)c2C#N)CCCNC1 (centres unmarked) [Example 1-3, 2-amino-6-(2-hydroxyphenyl)-4-(3-methylpiperidin-3-yl)-nicotinonitrile hydrochloride] | 500 to 2000
3 | CNC1CCCC(c2cc(-c3ccccc3O)nc(N)c2C#N)C1 (centres unmarked) [Example 1-5, 2-amino-6-(2-hydroxyphenyl)-4-[3-methylamino]cyclohexyl]nicotinonitrile hydrochloride] | < 500
4 | N#Cc1c(C2CCCNC2)cc(-c2ncccc2O)nc1N (centres unmarked) [Example 1-6, 6-amino-3′-hydroxy-4-(3-piperidinyl)-2,2′-bipyridine-5-carbonitrile hydrochloride] | < 500
5 | N#Cc1c(C2CCCNC2)cc(-c2sccc2O)nc1N (centres unmarked) [Example 1-7, 2-amino-6-(3-hydroxy-2-thienyl)-4-(3-piperidinyl)nicotinonitrile hydrobromide] | < 500
6 | N#Cc1c(C2CCCC(C(=O)O)C2)cc(-c2ccccc2O)nc1N (centres unmarked) [Example 1-8, 3-[2-amino-3-cyano-6-(2-hydroxyphenyl)-4-pyridinyl]cyclohexanecarboxylic acid] | 500 to 2000
7 | N#Cc1c(C2=CCCNC2)cc(-c2ccccc2O)nc1N [Example 1-9, 2′-amino-6′-(2-hydroxyphenyl)-1,2,5,6-tetrahydro-3,4′-bipyridine-3′-carbonitrile hydrochloride] | < 500
8 | N#Cc1c(C2CCCNC2)cc(-c2c(N)cccc2O)nc1N (centres unmarked) [Example 1-10, 2-amino-6-(2-amino-6-hydroxyphenyl)-4-(3-piperidinyl)nicotinonitrile hydrochloride] | 2000 to 10000
9 | N#Cc1c(C2CCCNC2)cc(-c2c(O)cccc2NCc2ccccc2)nc1N (centres unmarked) [Example 1-11, 2-amino-6-[2-(benzylamino)-6-hydroxyphenyl]-4-(3-piperidinyl)nicotinonitrile hydrochloride] | 500 to 2000
10 | CC(=O)Nc1cccc(O)c1-c1cc(C2CCCNC2)c(C#N)c(N)n1 (centres unmarked) [Example 1-12, N-{2-[6-amino-5-cyano-4-(3-piperidinyl)-2-pyridinyl]-3-hydroxyphenyl}acetamide hydrochloride] | 2000 to 10000
11 | N#Cc1c(C2CCCNC2)cc(-c2c(O)cccc2O)nc1N (centres unmarked) [Example 2-1, 2-amino-6-(2,6-dihydroxyphenyl)-4-(3-piperidinyl)nicotinonitrile hydrochloride] | < 500
12 | N#Cc1c(C2CCCNC2)cc(-c2c(O)cccc2OCc2ccccc2)nc1N (centres unmarked) [Example 2-2, 2-amino-6-[2-(benzyloxy)-6-hydroxyphenyl]-4-(3-piperidinyl)nicotinonitrile hydrochloride] | < 500
13 | N#Cc1c(C2CCNCC2)cc(-c2c(O)cccc2OCC2CC2)nc1N [Example 2-3, hydrochloride] | < 500
14 | CN1CCCC(c2cc(-c3c(O)cccc3OCC3CC3)nc(N)c2C#N)C1 (centres unmarked) [Example 3-1, 2-amino-6-[2-(cyclopropylmethoxy)-6-hydroxyphenyl]-4-(1-methyl-3-piperidinyl)nicotinonitrile] | < 500
15 | N#Cc1c(C2CCCN(Cc3ccccc3)C2)cc(-c2c(O)cccc2OCC2CC2)nc1N (centres unmarked) [Example 3-2, 2-amino-4-(1-benzyl-3-piperidinyl)-6-[2-(cyclopropylmethoxy)-6-hydroxyphenyl]nicotinonitrile] | 2000 to 10000
16 | CCCNc1nc(-c2ccccc2O)cc(C2CCCNC2)c1C#N (centres unmarked) [Example 4-2, 6-(2-hydroxyphenyl)-4-(3-piperidinyl)-2-(propylamino)nicotinonitrile hydrochloride] | 2000 to 10000
17 | CNc1nc(-c2ccccc2O)cc(C2CCCNC2)c1C#N (centres unmarked) [Example 4-3, 6-(2-hydroxyphenyl)-2-(methylamino)-4-(3-piperidinyl)nicotinonitrile hydrochloride] | 2000 to 10000
18 | N#Cc1c(C2CCCNC2)cc(-c2ccccc2O)nc1Nc1ccccc1 (centres unmarked) [Example 4-4, hydrochloride] | > 10000
19 | Nc1n[nH]c2nc(-c3ccccc3O)cc(C3CCCNC3)c12 (centres unmarked) [Example 5-1, 2-[3-amino-4-(3-piperidinyl)-1H-pyrazolo[3,4-b]pyridin-6-yl]phenol hydrochloride] | 2000 to 10000
20 | CC(=O)Nc1n[nH]c2nc(-c3ccccc3O)cc(C3CCCNC3)c12 (centres unmarked) [Example 5-2, N-[6-(2-hydroxyphenyl)-4-(3-piperidinyl)-1H-pyrazolo[3,4-b]pyridin-3-yl]acetamide hydrochloride] | > 10000
21 | CC(=O)Nc1nc(-c2ccccc2O)cc(C2CCCNC2)c1C#N (centres unmarked) [Example 6-1, N-[3-cyano-6-(2-hydroxyphenyl)-4-(3-piperidinyl)-2-pyridinyl]acetamide hydrochloride] | < 500
22 | CC(=O)Nc1nc(-c2c(O)cccc2OCC2CC2)cc(C2CCNCC2)c1C#N [Example 6-2, N-[3-cyano-6-[2-(cyclopropylmethoxy)-6-hydroxyphenyl]-4-(4-piperidinyl)-2-pyridinyl]acetamide hydrochloride] | < 500
23 | NC(=O)c1c(C2CCCNC2)cc(-c2ccccc2O)nc1N (centres unmarked) [Example 7-1, 2-amino-6-(2-hydroxyphenyl)-4-(3-piperidinyl)nicotinamide hydrochloride] | < 500
24 | O=c1[nH]c(=O)c2c(C3CCCNC3)cc(-c3ccccc3O)nc2[nH]1 (centres unmarked) [Example 7-2, 7-(2-hydroxyphenyl)-5-(3-piperidinyl)pyrido[2,3-d]pyrimidine-2,4(1H,3H)-dione hydrochloride] | < 500
25 | O=c1[nH]c2nc(-c3ccccc3O)cc(C3CCCNC3)c2c(=O)n1-c1ccccc1 (centres unmarked) [Example 7-3, 7-(2-hydroxyphenyl)-3-phenyl-5-(3-piperidinyl)pyrido[2,3-d]pyrimidine-2,4(1H,3H)-dione hydrochloride] | 500 to 2000
26 | Nc1nc(-c2ccccc2O)cc2c1C(=O)N1CCCC2C1 (centres unmarked) [Example 8-1, 6-amino-4-(2-hydroxy-phenyl)-5,9-diaza-tricyclo[7.3.1.0^2,7]trideca-2(7),3,5-trien-8-one] | 500 to 2000

Source: patent US6984649B1, “Pyridine derivatives” (Bayer Aktiengesellschaft, priority 2000, dated 2006)
